Patent US9340493B2, “Hydroxamic acid derivatives useful as antibacterial agents” (Pfizer Inc., priority 2008, dated 2016)
In brackets after ≈: the same amount, converted by molar mass.

Experiments:
[1] = target: T1, Pseudomonas aeruginosa LpxC enzyme (Pseudomonas aeruginosa, UniProt P47205); assay: IC50 assay, LpxC enzyme from P. aeruginosa; assay type: biochemical; conditions: 0.5 nM enzyme, 25° C., pH 8.0, 20 min; ** = average of 2-8 assays
T1 construct: made in house; host or cells: E. coli
T1 sequence (P47205 1-303): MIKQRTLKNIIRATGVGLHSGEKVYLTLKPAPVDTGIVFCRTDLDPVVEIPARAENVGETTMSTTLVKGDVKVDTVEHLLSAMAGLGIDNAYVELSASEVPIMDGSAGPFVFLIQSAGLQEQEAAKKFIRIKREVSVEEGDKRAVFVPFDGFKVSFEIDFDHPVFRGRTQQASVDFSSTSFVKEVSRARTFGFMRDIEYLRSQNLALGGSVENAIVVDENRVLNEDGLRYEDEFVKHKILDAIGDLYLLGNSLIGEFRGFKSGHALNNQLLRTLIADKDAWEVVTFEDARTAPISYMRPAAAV
Protocol: IC50 assay, LpxC enzyme from P. aeruginosa: IC50 determination in the LpxC enzyme assay was carried out in a similar manner to that described by S. A. Hyland et al., J. Bacteriology 1997, 179, 2029-2037. [See also T. Kline et al., J. Medicinal Chemistry 2002, 45, 3112-3129.] Briefly, Pseudomonas aeruginosa LpxC enzyme (0.5 nM) purified from E. coli-overexpressing bacteria was incubated at 25° C. in a final volume of 25 ul containing 0.5 uM UDP-3-O—(R-3-hydroxydecanoyl)-N—[^3H-acetyl]glucosamine (B. D. Maxwell and J. C. Bronstein, J. Labeled Compounds and Radiopharmaceuticals 2005, 48, 1049-1054), 1 mg/ml BSA, and 50 mM sodium phosphate buffer, pH 8.0 in the presence and absence of inhibitor compound. At the end of 20 min, 90 ul of a pre-mixed 3% suspension of activated charcoal in 100 mM sodium acetate, pH 7.5, was added to stop the enzyme reaction. The contents of the well were transferred to a filter plate and filtered, and an aliquot of the filtrate was quantitated by liquid scintillation spectrometry. A no-enzyme control was subtracted in order to eliminate background counts.

P. aeruginosa PAO280 = assay: MIC determination, P. aeruginosa PAO280; assay type: cell-based; conditions: Pseudomonas aeruginosa, PAO280, read-out: MIC (ug/mL) P. aeruginosa PAO280
Protocol: (§1) MIC determinations: The in vitro antibacterial activity of compounds described in the Examples was evaluated by minimum inhibitory concentration (MIC) testing according to Clinical and Laboratory Standards Institute (CLSI, formerly NCCLS) guidelines. See: Clinical and Laboratory Standards Institute. Methods for Dilution Antimicrobial Susceptibility Tests for Bacteria that Grow Aerobically; Approved Standard-Seventh Edition. CLSI document M7-A7 [ISBN 1-56238-587-9]. Clinical and Laboratory Standards Institute, 940 West Valley Road, Suite 1400, Wayne, Pa. 19087-1898 USA, 2006; also Clinical and Laboratory Standards Institute. Performance Standards for Antimicrobial Susceptibility Testing; Eighteenth Informational Supplement. CLSI document M100-S18 [ISBN1-56238-653-0]. Clinical and Laboratory Standards Institute.
(§2) The following bacterial strains were used:
Pseudomonas aeruginosa PA0280: lacks efflux pumps MexAB-oprM, MexXY and MexZ

P. aeruginosa UI-18 = assay: MIC determination, P. aeruginosa UI-18; assay type: cell-based; conditions: Pseudomonas aeruginosa, UI18; wild-type; * = arithmetic mean of 2-6 MIC determinations; read-out: MIC (ug/mL) P. aeruginosa UI-18
Protocol: as §1, §2
P. aeruginosa UI-18: Wild-type;

[2] = system: Staphylococcus aureus ATCC 29213; assay: MIC determination, S. aureus ATCC 29213; assay type: cell-based; conditions: ATCC29213, CLSI quality control reference strain, * = arithmetic mean of 2-6 MIC determinations, read-out: MIC (ug/mL) S. aureus ATCC 29213
Protocol: as §1, §2
Staphylococcus aureus ATCC 29213: CLSI quality control reference strain; and […]

Compound | IC50 [1] | MIC (P. aeruginosa PAO280) | MIC (P. aeruginosa UI-18) | MIC [2]
C[C@@](OCc1ccc(-c2ccccc2)cc1)(C(=O)NO)[C@@H](O)c1cc(COP(=O)(O)O)on1 [Example 47, trisodium {3-[(1S,2S)-2-(biphenyl-4-ylmethoxy)-1-hydroxy-2-methyl-3-(oxidoamino)-3-oxopropyl]isoxazol-5-yl}methyl phosphate] | 0.00565 µM |  |  | 
CC(CO)(OCc1ccc(-c2ccc(-c3csnn3)cc2)cc1)C(=O)NO (stereo not shown) [Example 59, N,3-dihydroxy-2-methyl-2-{[4′-(1,2,3-thiadiazol-4-yl)biphenyl-4-yl]methoxy}propanamide] | 0.00402 µM | 1 µg/mL (≈ 2.59 µM) | > 64 µg/mL | > 64 µg/mL
CC(CO)(OCc1ccc(-c2ccc(C3=NNC(=O)CC3)cc2)cc1)C(=O)NO (stereo not shown) [Example 60, N,3-dihydroxy-2-methyl-2-{[4′-(6-oxo-1,4,5,6-tetrahydropyridazin-3-yl)biphenyl-4-yl]methoxy}propanamide] | 0.0105 µM | 4 µg/mL (≈ 10.1 µM) | > 64 µg/mL | > 64 µg/mL
CN(C)S(=O)(=O)c1ccc(-c2ccc(COC(C)(CO)C(=O)NO)cc2)cc1 (stereo not shown) [Example 61, 2-({4′-[(dimethylamino)sulfonyl]biphenyl-4-yl}methoxy)-N,3-dihydroxy-2-methylpropanamide] | 0.0602 µM | 16 µg/mL (≈ 39.2 µM) | > 64 µg/mL | > 64 µg/mL
Cc1cc(F)ccc1-c1ccc(COC(C)(CO)C(=O)NO)cc1 (stereo not shown) [Example 63, 2-[(4′-fluoro-2′-methylbiphenyl-4-yl)methoxy]-N,3-dihydroxy-2-methylpropanamide] | 0.0174 µM | 4 µg/mL (≈ 12 µM) | > 64 µg/mL | > 64 µg/mL
CC(CO)(OCc1ccc(-c2cccc(F)c2)cc1)C(=O)NO (stereo not shown) [Example 64, 2-[(3′-fluorobiphenyl-4-yl)methoxy]-N,3-dihydroxy-2-methylpropanamide] | 0.00757 µM | 4 µg/mL (≈ 12.5 µM) | > 64 µg/mL | > 64 µg/mL
COc1cccc(-c2ccc(COC(C)(CO)C(=O)NO)cc2)c1F (stereo not shown) [Example 65, 2-[(2′-fluoro-3′-methoxybiphenyl-4-yl)methoxy]-N,3-dihydroxy-2-methylpropanamide] | 0.00579 µM | 1 µg/mL (≈ 2.86 µM) | 64 µg/mL (≈ 183 µM) | > 64 µg/mL
CC(OCc1ccc(-c2ccccc2)cc1)(C(=O)NO)C(=O)NCC1(O)CCCC1 (stereo not shown) [Example 68, 2-(biphenyl-4-ylmethoxy)-N-hydroxy-N′-[(1-hydroxycyclopentyl)methyl]-2-methylmalonamide] | 0.0955 µM | 4 µg/mL (≈ 9.7 µM) | > 64 µg/mL | > 64 µg/mL
Cc1ccc(CNC(=O)C(C)(OCc2ccc(-c3ccccc3)cc2)C(=O)NO)cc1 (stereo not shown) [Example 72, 2-(biphenyl-4-ylmethoxy)-N-hydroxy-2-methyl-N′-(4-methylbenzyl)malonamide] | 0.0307 µM | 4 µg/mL (≈ 9.56 µM) | > 16 µg/mL | > 16 µg/mL
Cn1cc(CCNC(=O)C(C)(OCc2ccc(-c3ccccc3)cc2)C(=O)NO)cn1 (stereo not shown) [Example 73, 2-(biphenyl-4-ylmethoxy)-N-hydroxy-2-methyl-N′-[2-(1-methyl-1H-pyrazol-4-yl)ethyl]malonamide] | 0.0156 µM | 1 µg/mL (≈ 2.37 µM) | > 64 µg/mL | > 64 µg/mL
